Each structure is given as a SMILES string.

The target in the test is T1, Human plasma kallikrein (Homo sapiens, UniProt P03952).
T1 construct: yields a heavy chain (371 amino acids) and a light chain (248 amino acids); purchased Enzyme Research Laboratories
In words: Plasma Kallikrein Assay. It is filed as biochemical. The conditions noted are these: purified Human plasma kallikrein 0.5 nM, substrate Acetyl-K-P-R-AFC, pH 7.4. Here is the method:
The effectiveness of a compound of the present invention as an inhibitor of plasma kallikrein can be determined using a relevant purified serine protease, and an appropriate synthetic substrate. The rate of hydrolysis of the chromogenic or fluorogenic substrate by the relevant serine protease was measured both in the absence and presence of compounds of the present invention. Assays were conducted at rt or at 37° C. […] A decrease in the rate of fluorescence change in the presence of inhibitor is indicative of enzyme inhibition. Such methods are known to one skilled in the art. The results of this assay are expressed as the half-maximal inhibitory concentrations (IC50), or the inhibitory constant, Ki.
Plasma kallikrein determinations were made in 50 mM HEPES buffer at pH 7.4 containing 150 mM NaCl, 5 mM CaCl2), and 0.1% PEG 8000 (polyethylene glycol; Fisher Scientific). […]
Times required to achieve equilibration between enzyme and inhibitor were determined in control experiments. The reactions were performed under linear progress curve conditions and fluorescence increase measured at 405 Ex/510 Em nm. […] IC50 was determined by inflection point from a four parameter logistic curve fit. Ki was calculated using the Cheng Prusoff equation, Ki=IC50/(1+([S]/Km)).

T1 sequence (P03952 391-638 limits assumed): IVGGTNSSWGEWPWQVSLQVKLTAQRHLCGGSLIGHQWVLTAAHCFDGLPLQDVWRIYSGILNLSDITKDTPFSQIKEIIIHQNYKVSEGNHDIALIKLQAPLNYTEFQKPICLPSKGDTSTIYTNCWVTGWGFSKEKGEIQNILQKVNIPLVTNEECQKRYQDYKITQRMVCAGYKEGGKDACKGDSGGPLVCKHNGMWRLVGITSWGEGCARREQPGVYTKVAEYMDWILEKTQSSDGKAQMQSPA
T1 sequence (P03952 20-390 partner limits assumed): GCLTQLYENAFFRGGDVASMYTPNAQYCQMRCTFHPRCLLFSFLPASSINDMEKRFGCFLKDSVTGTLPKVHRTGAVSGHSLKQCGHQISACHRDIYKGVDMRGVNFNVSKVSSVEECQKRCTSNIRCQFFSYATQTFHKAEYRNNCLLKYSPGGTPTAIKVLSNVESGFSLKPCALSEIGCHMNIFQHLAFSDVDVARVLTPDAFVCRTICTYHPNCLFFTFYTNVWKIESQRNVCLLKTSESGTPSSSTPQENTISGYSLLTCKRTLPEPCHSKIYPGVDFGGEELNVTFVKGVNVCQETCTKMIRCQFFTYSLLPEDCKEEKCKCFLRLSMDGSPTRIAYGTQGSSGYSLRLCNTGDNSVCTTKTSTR

In the case of `Nc1ncc(-c2c(C(F)F)ccc(Cl)c2F)nc1C(=O)Nc1cnn(Cc2cnc(N3CCC3)nc2)c1` [Example 3, 3-Amino-N-(1-((2-(azetidin-1-yl)pyrimidin-5-yl)methyl)-1H-pyrazol-4-yl)-6-(3-chloro-6-(difluoromethyl)-2-fluorophenyl)pyrazine-2-carboxamide], the IC50 was 40.5 nM.
The compound `O=C(Nc1cnn(Cc2cnc(N3CCC3)nc2)c1)c1nc(-c2c(C(F)F)ccc(Cl)c2F)cnc1O` [Example 20, N-(1-((2-(Azetidin-1-yl)pyrimidin-5-yl)methyl)-1H-pyrazol-4-yl)-6-(3-chloro-6-(difluoromethyl)-2-fluorophenyl)-3-hydroxypyrazine-2-carboxamide] returned a half-maximal inhibitory concentration (IC50) of 15.4 nM.
`Cc1nc(N2CCC2)cnc1Cn1cc(NC(=O)c2cncc(-c3c(C(F)F)ccc(Cl)c3F)n2)cn1` [Example 24, N-(1-((5-(Azetidin-1-yl)-3-methylpyrazin-2-yl)methyl)-1H-pyrazol-4-yl)-6-(3-chloro-6-(difluoromethyl)-2-fluorophenyl)pyrazine-2-carboxamide] had a 50% inhibitory concentration (IC50) of 26.8 nM.
Compound `N#Cc1ccc(Cl)c(F)c1-c1cncc(C(=O)Nc2cnn(Cc3ccc(N4CCC4)nc3)c2)n1` [Example 52, N-(1-((6-(Azetidin-1-yl)pyridin-3-yl)methyl)-1H-pyrazol-4-yl)-6-(3-chloro-6-cyano-2-fluorophenvl)pyrazine-2-carboxamide] had a 50% inhibitory concentration (IC50) of 17.1 nM.
`N#Cc1ccc(Cl)c(F)c1-c1cncc(C(=O)Nc2cnn(Cc3cnc(N4CCC4)nc3)c2)n1` [Example 53, N-(1-((2-(Azetidin-1-yl)pyrimidin-5-yl)methyl)-1H-pyrazol-4-yl)-6-(3-chloro-6-cyano-2-fluorophenyl)pyrazine-2-carboxamide]: the concentration for half-maximal inhibition (IC50) came out at 30.7 nM.
As for `O=C(Nc1cnn(Cc2ccc(N3CC[C@@H]3CO)nc2)c1)c1cncc(-c2c(C(F)F)ccc(Cl)c2F)n1` [Example 68, (R)-6-(3-Chloro-6-(difluoromethyl)-2-fluorophenyl)-N-(1-((6-(2-(hydroxymethyl)azetidin-1-yl)pyridin-3-yl)methyl)-1H-pyrazol-4-yl)pyrazine-2-carboxamide], the figure is 26.3 nM; as for `CC(c1cnc(N(C)CC(=O)N(C)C)nc1)n1cc(NC(=O)c2cncc(-c3c(C(F)F)ccc(Cl)c3F)n2)cn1` (centres unmarked) [Example 72, 6-(3-Chloro-6-(difluoromethyl)-2-fluorophenyl)-N-(1-(1-(2-((2-(dimethylamino)-2-oxoethyl)(methyl)amino)pyrimidin-5-yl)ethyl)-1H-pyrazol-4-yl)pyrazine-2-carboxamide], 2.5 nM.
The value for `O=C(Nc1cnn(Cc2cnc(N3CCC4OCCC43)nc2)c1)c1cncc(-c2c(C(F)F)ccc(Cl)c2F)n1` (centres unmarked) [Example 75, 6-(3-Chloro-6-(difluoromethyl)-2-fluorophenyl)-N-(1-((2-(hexahydro-4H-furo[3,2-b]pyrrol-4-yl)pyrimidin-5-yl)methyl)-1H-pyrazol-4-yl)pyrazine-2-carboxamide] was 5 nM.
In turn, `CC(c1cnc(N2Cc3cncnc3C2)nc1)n1cc(NC(=O)c2cncc(-c3c(C(F)F)ccc(Cl)c3F)n2)cn1` (centres unmarked) [Example 78, 6-(3-Chloro-6-(difluoromethyl)-2-fluorophenyl)-N-(1-(1-(2-(5,7-dihydro-6H-pyrrolo[3,4-d]pyrimidin-6-yl)pyrimidin-5-yl)ethyl)-1H-pyrazol-4-yl)pyrazine-2-carboxamide] yielded a concentration for half-maximal inhibition (IC50) of 5.6 nM.
In the case of `CC(c1cnc(N(CCO)Cc2ccccn2)nc1)n1cc(NC(=O)c2cncc(-c3c(C(F)F)ccc(Cl)c3F)n2)cn1` (centres unmarked) [Example 85, 6-(3-Chloro-6-(difluoromethyl)-2-fluorophenyl)-N-(1-(1-(2-((2-hydroxyethyl)(pyridin-2-ylmethyl)amino)pyrimidin-5-yl)ethyl)-1H-pyrazol-4-yl)pyrazine-2-carboxamide], half-maximal inhibition (IC50) was put at 11.8 nM.
`CN(C)CCN(CCO)c1ncc(Cn2cc(NC(=O)c3cncc(-c4c(C(F)F)ccc(Cl)c4F)n3)cn2)cn1` [Example 88, 6-(3-Chloro-6-(difluoromethyl)-2-fluorophenyl)-N-(1-((2-((2-(dimethylamino)ethyl)(2-hydroxyethyl)amino)pyrimidin-5-yl)methyl)-1H-pyrazol-4-yl)pyrazine-2-carboxamide] gave a concentration for half-maximal inhibition (IC50) of 14.9 nM.
Regarding `CC(c1cnc(N2Cc3ccncc3C2)nc1)n1cc(NC(=O)c2cncc(-c3c(C(F)F)ccc(Cl)c3F)n2)cn1` (centres unmarked) [Example 89, 6-(3-Chloro-6-(difluoromethyl)-2-fluorophenyl)-N-(1-(1-(2-(1,3-dihydro-2H-pyrrolo[3,4-c]pyridin-2-yl)pyrimidin-5-yl)ethyl)-1H-pyrazol-4-yl)pyrazine-2-carboxamide], it took 17.3 nM to reach half-maximal inhibition (IC50).
As for `O=C(Nc1cnn(Cc2cnc(N3CC4C(C3)C4(F)F)nc2)c1)c1cncc(-c2c(C(F)F)ccc(Cl)c2F)n1` (centres unmarked) [Example 90, 6-(3-Chloro-6-(difluoromethyl)-2-fluorophenyl)-N-(1-((2-(6,6-difluoro-3-azabicyclo[3.1.0]hexan-3-yl)pyrimidin-5-yl)methyl)-1H-pyrazol-4-yl)pyrazine-2-carboxamide], the figure is 17.8 nM.
`CCC(=O)C1C2CC2CN1c1ncc(Cn2cc(NC(=O)c3cncc(-c4c(C(F)F)ccc(Cl)c4F)n3)cn2)cn1` (centres unmarked) [Example 91, 6-(3-Chloro-6-(difluoromethyl)-2-fluorophenyl)-N-(1-((2-(2-propionyl-3-azabicyclo[3.1.0]hexan-3-yl)pyrimidin-5-yl)methyl)-1H-pyrazol-4-yl)pyrazine-2-carboxamide] had a half-inhibitory concentration (IC50) of 17.9 nM.
`CC(c1cnc(N2CCN(C)C(=O)C2)nc1)n1cc(NC(=O)c2cncc(-c3c(C(F)F)ccc(Cl)c3F)n2)cn1` (centres unmarked) [Example 95, 6-(3-Chloro-6-(difluoromethyl)-2-fluorophenyl)-N-(1-(1-(2-(4-methyl-3-oxopiperazin-1-yl)pyrimidin-5-yl)ethyl)-1H-pyrazol-4-yl)pyrazine-2-carboxamide]: the concentration for half-maximal inhibition (IC50) was 21.7 nM.
Compound `CN(C)CCN(C)c1ncc(Cn2cc(NC(=O)c3cncc(-c4c(C(F)F)ccc(Cl)c4F)n3)cn2)cn1` [Example 98, 6-(3-Chloro-6-(difluoromethyl)-2-fluorophenyl)-N-(1-((2-((2-(dimethylamino)ethyl)(methyl)amino)pyrimidin-5-yl)methyl)-1H-pyrazol-4-yl)pyrazine-2-carboxamide] registered a half-maximal inhibitory concentration (IC50) of 28.2 nM.
The value for `CC(C)(O)CC1CCCN1c1ncc(Cn2cc(NC(=O)c3cncc(-c4c(C(F)F)ccc(Cl)c4F)n3)cn2)cn1` (centres unmarked) [Example 106, 6-(3-Chloro-6-(difluoromethyl)-2-fluorophenyl)-N-(1-((2-(2-(2-hydroxy-2-methylpropyl)pyrrolidin-1-yl)pyrimidin-5-yl)methyl)-1H-pyrazol-4-yl)pyrazine-2-carboxamide] was 41.3 nM; that for `O=C(Nc1cnn(Cc2cnc(N3CCCC3C3(O)CC3)nc2)c1)c1cncc(-c2c(C(F)F)ccc(Cl)c2F)n1` (centres unmarked) [Example 107, 6-(3-Chloro-6-(difluoromethyl)-2-fluorophenyl)-N-(1-((2-(2-(1-hydroxycyclopropyl)pyrrolidin-1-yl)pyrimidin-5-yl)methyl)-1H-pyrazol-4-yl)pyrazine-2-carboxamide] was 43.5 nM; that for `O=C(Nc1cnn(Cc2cnc(N3CCC4CC43)nc2)c1)c1cncc(-c2c(C(F)F)ccc(Cl)c2F)n1` (centres unmarked) [Example 108, N-(1-((2-(2-Azabicyclo[3.1.0]hexan-2-yl)pyrimidin-5-yl)methyl)-1H-pyrazol-4-yl)-6-(3-chloro-6-(difluoromethyl)-2-fluorophenyl)pyrazine-2-carboxamide] was 45 nM.
On to `O=C(Nc1cnn(Cc2cnc(N3CCCC3Cn3ccnc3)nc2)c1)c1cncc(-c2c(C(F)F)ccc(Cl)c2F)n1` (centres unmarked) [Example 109, N-(1-((2-(2-((1H-Imidazol-1-yl)methyl)pyrrolidin-1-yl)pyrimidin-5-yl)methyl)-1H-pyrazol-4-yl)-6-(3-chloro-6-(difluoromethyl)-2-fluorophenyl)pyrazine-2-carboxamide], for which inhibition was half-maximal at 45.9 nM (IC50).
As to `O=C(Nc1cnn(Cc2cnc(N3CCCC3CO)nc2)c1)c1cncc(-c2c(C(F)F)ccc(Cl)c2F)n1` (centres unmarked) [Example 113, 6-(3-Chloro-6-(difluoromethyl)-2-fluorophenyl)-N-(1-((2-(2-(hydroxymethyl)pyrrolidin-1-yl)pyrimidin-5-yl)methyl)-1H-pyrazol-4-yl)pyrazine-2-carboxamide], the IC50 worked out at 65.1 nM.
`CN(CCN1CCCC1)c1ccc(Cn2cc(NC(=O)c3cncc(-c4c(C(F)F)ccc(Cl)c4F)n3)cn2)cn1` [Example 114, 6-(3-Chloro-6-(difluoromethyl)-2-fluorophenyl)-N-(1-((6-(methyl(2-(pyrrolidin-1-yl)ethyl)amino)pyridin-3-yl)methyl)-1H-pyrazol-4-yl)pyrazine-2-carboxamide] displayed an IC50 of 2.7 nM.
`O=C(Nc1cnn(Cc2ccc(N3CCCC3CCO)nc2)c1)c1cncc(-c2c(C(F)F)ccc(Cl)c2F)n1` (centres unmarked) [Example 115, 6-(3-Chloro-6-(difluoromethyl)-2-fluorophenyl)-N-(1-((6-(2-(2-hydroxyethyl)pyrrolidin-1-yl)pyridin-3-yl)methyl)-1H-pyrazol-4-yl)pyrazine-2-carboxamide] gave an IC50 of 3.5 nM.
